Results taken from patent US6586006B2, “Solid delivery systems for controlled release of molecules incorporated therein and methods of making same” (Elan Drug Delivery Limited, priority 1994, dated 2003).

What was measured:
Assay type in all cases: physicochemical
[1] = Glass transition temperature (Tg) by thermal analysis (DSC)
Source text: In general, the tendency to crystallize, from a cooling melt or with reducing solvent, is low. Both devitrification and the fluidity of the melt at temperatures close to Tg, can be controlled by modifiers such as other derivative sugars and certain organic actives. The following two tables, generated as described in the Examples presented below, provide Tg and melting temperature data for a variety of HDCs suitable for use, either alone, or in a composite glass, herein.
Dissolution of synthetic corticosteroid XPDO (described below) into a TOAC melt and quenching to form the vitreous solid dose delivery system was achieved. By looking at the release of MB9 into aqueous solution, these experiments tested the compatibility of the steroid within the glass, subsequent recovery of the steroid and studied the effect that XPDO has on the properties of the delivery system formed looking at the release of MB9 into aqueous solution. TOAC (3.21 g) was pre-melted at 150° C., before being quenched to glass. The glass was finely ground with XPDO (0.15 g) before being remelted. The clear melt was again quenched to yield the composite HDC/active glass. Thermal analysis was carried out on a Rheometric Scientific Differential Scanning Calorimeter (DSC) at a heating rate of 10°/min under a nitrogen atmosphere. The following samples were prepared:
Studies were performed using the synthetic corticosteroid XPDO dissolved in DCM. The solution was spray dried in a Buchi B-191 spray drier, using an inlet temperature of 40° C. […] XPDO was incorporated at 20 wt %. The powder was completely amorphous as confirmed by thermal analysis (Tg=46° C.).

[2] = Controlled release of encapsulated MB9 dye from HDC glass beads/discs; conditions: FIG. 11
Description: In the following experiments, the delivery system was preformulated, whether as a single material, or as a mixed composition. This was carried out by intimately grinding the component HDCs together, followed by careful, controlled melting in a furnace, between 120-140° C. and with normal atmosphere to form melts. The melts were quenched to glass by pouring over a brass block. This glass was then finely ground.
MB9 dye (1 or 5 wt %) was mixed with the ground glass prior to re-melting at 140° C. The melt was quenched to form small glass beads (2.5 mm diameter) which were used in controlled release experiments.
Controlled release of encapsulated dye was monitored by suspending three such beads in 25 or 50 ml of deionized water or PBS solution at ambient temperatures (27-30° C.) or at 37° C., as indicated. The media were undisturbed, except for periodic stirring and were replaced at set intervals with fresh media (generally at 72 hr intervals). Both single HDC glasses and composite HDC glasses were formed. […] The use of other HDCs as glass modifiers in the composite HDC formulations enable the tailoring of the glasses formed to yield the release characteristics desired.
In FIG. 8, the results were obtained from TOAC glass discs (6 mm×2.5 mm) with MB9 dye evenly dispersed therein at 2 wt %. Release was controlled at 25° C. with gentle stirring and media changes at regular intervals. Note the linear release of MB9 dye over a 55 day period. The results presented in FIG. 8 indicate that a pure HDC vitreous delivery vehicle system gives zero-order release rates of guest substances. The results presented in FIGS. 9-14 show variation on release rates by changing the ratios of different HDCs in the delivery systems, changing the carbohydrate backbone length and by changing the nature of the derivative on the carbohydrate backbone. In each instance it is clear that the HDC delivery systems allow a wide range of release rates that can be tailored to the guest substance and the delivery thereof.

[3] = Resistance of glasses to devitrification on exposure to relative humidity
Description: Glasses were made by evaporating DCM on a hotplate set at 65° C. from a 25% solutions of TOAC (50% solutions often deposited crystals in the pipette tip). Drying was carried out for 2 hr to be certain of complete dryness. Uniform glasses were produced by using an Eppendorf-type pipette to deliver 100 μl to a slide recently placed on the hotplate and then removing about 50 μl by using the clear/expel volume of the pipette.
XPDO was therefore incorporated into a TOAC glass by dissolving both crystalline TOAC and XPDO in DCM and evaporating the solvent at 70° C. on a hotplate. XPDO was used in proportions of 10% and 20% of total solids in the final TOAC glass.
The resulting glasses were tested for their utility as controlled release matrices in two ways. First, they were assessed for their ability to resist devitrification on exposure to high RH at RT. Second, they were immersed in water or phosphate-buffered saline (PBS) to study their solubility and rate of erosion by surface recrystallization.

[4] = Weight loss and dye release of glucose pentaacetate glass discs in water
Description: Another glass disc of similar dimensions was prepared from α-D-glucose pentaacetate and placed in 1 l of water, which was replaced daily. After 7 days, the glass had lost 20% of its original weight. The release rate of the dye was higher in the first day as the release happened mainly from the surface of the glass disc.

[5] = Water resistance and dye release of carboxylate, HDC or plastic coated/coformulated systems
Description: These particles were coated by adding them to a saturated solution of zinc palmitate (ZnC16) in toluene and cooling from 60° C. to 30° C. This deposited a layer of ZnC16 on the particles which were then filtered under vacuum to remove the excess ZnC16, washed with acetone and air-dried.
A fine amorphous film (100-200 μm thickness) was formed by casting on silicate glass slides and evaporating off the solvent in a warm air-stream.
Amorphous films were also formed from calcium neodecanoate dissolved in chloroform (0.5 g/10 ml) as described above.
Films of glucose glass incorporating 1 wt % MB9 were formulated by quenching from the melt. These films were coated with thin (100 μm thickness) amorphous metal carboxylate films by evaporation of solution of the carboxylate in chloroform (0.5 g/10 ml). The metal carboxylates used were aluminum hexanoate and octanoate, calcium neodecanoate and magnesium isostearate and neodecanoate. Dissolution of the films was monitored by release of dye into distilled water.

[6] = Enzyme activity after exposure to acetone, dried with or without trehalose; conditions: dried with 50% trehalose versus without, FIGS. 5A and 5B
Description: A 0.1 mg/ml horseradish peroxidase solution or a 1 mg/ml alkaline phosphatase/4 mg/ml bovine serum albumin solution was dried in an FTS Systems freeze drier with or without 50% trehalose. The drier was used as a vacuum drier and the mixtures dried without freezing. Four times the volume of solvent was added and the solution was allowed to evaporate to dryness. The contents were redissolved in 5 milliliters of water, and enzyme activity was assessed, in serial dilution, by commercial ‘kit’ reagents.

[7] = Phycoerythrin fluorescence (functional activity) after solvents, heat or processing
Description: Glasses were formed by drying 20% solutions of either trehalose, lactitol, palatinit or GPS, containing MWPB and 1 mg/ml of the fluorescent algal protein phycoerythrin under vacuum (80 mTorr) for 16 hrs. The glasses were ground in a domestic coffee mill to yield a coarse powder which was used to fill the spinning head of a Kando K1 Kandy Floss cotton candy machine (GB Patent No. 1533012). The motor was then switched on and the powdered sugar glass heated at element settings between 5 and 9. Residence time in the spinning head was 2-10 min and a continuous process was maintained by constantly topping up the head.
A 400 μg/ml phycoerythrin solution was freeze-dried in a Labconco freeze-drier with or without 20% trehalose. The dried protein powder was exposed to a number of organic solvents for 72 hrs.
A 400 μg/ml phycoerythrin solution was freeze-dried in the FTS drier with or without 20% trehalose. […]

[8] = freeze-dried powder in pyridine

For `CC(=O)OC[C@H]1O[C@@H](O[C@H]2[C@H](OC(C)=O)[C@@H](OC(C)=O)C(OC(C)=O)O[C@@H]2COC(C)=O)[C@H](OC(C)=O)[C@@H](OC(C)=O)[C@@H]1OC(C)=O` (stereo partly shown) [COAC, cellobiose octaacetate], the “Tg/° C.” value ([1]; single HDC glasses (Table 1)) was 65 °C.

For `CCCCCCCCO[C@@H]1O[C@H](COC(C)=O)[C@@H](OC(C)=O)[C@H](OC(C)=O)[C@H]1OC(C)=O` [OGTA, 1-0-Octyl-β-D-glucose tetraacetate], the “Tg/° C.” value ([1]; single HDC glasses (Table 1)) was −10 °C.

In the case of `CC(=O)OCC1OC(OCC2OC(OC3(COC(C)=O)OC(COC(C)=O)C(OC(C)=O)C3OC(C)=O)C(OC(C)=O)C(OC(C)=O)C2OC(C)=O)C(OC(C)=O)C(OC(C)=O)C1OC(C)=O` (stereo not shown) [RUDA, raffinose undecaacetate], the “Tg/° C.” value ([1]; single HDC glasses (Table 1)) is reported as 55 °C, the “Tg/° C.” value ([1]; single and composite HDC glasses, mole ratios of HDCs in glass (Table 2)) is reported as 55 °C and the MB9 release profile ([2]; TOAC/RUDA glass spheres into PBS) is reported as “biphasic release rate”. For the same compound, the “initial fast release of MB9 dye” value ([2]; glass spheres into PBS, in 5 days) was “about 60%”.

For `CC(=O)OC[C@H]1O[C@@](COC(C)=O)(O[C@H]2O[C@H](COC(C)=O)[C@@H](OC(C)=O)[C@H](OC(C)=O)[C@H]2OC(C)=O)[C@@H](OC(C)=O)[C@@H]1OC(C)=O` [SOAC, sucrose octaacetate], the “Tg/° C.” value ([1]; single HDC glasses (Table 1)) was 25 °C.

For `CCC(=O)OCC1OC(OC2OC(COC(=O)CC)C(OC(=O)CC)C(OC(=O)CC)C2OC(=O)CC)C(OC(=O)CC)C(OC(=O)CC)C1OC(=O)CC` (stereo not shown) [TOPR, trehalose octapropanoate], the “Tg/° C.” value ([1]; single HDC glasses (Table 1)) was 3 °C and the “devitrification at RH from 75% to 95%” value ([3]; thin glass films and quenched disks, RT, overnight exposure) was “very susceptible to devitrification at high RH”.

With `OC[C@H]1O[C@H](O[C@H]2O[C@H](CO)[C@@H](O)[C@H](O)[C@H]2O)[C@H](O)[C@@H](O)[C@@H]1O` [Trehalose, α-D-glucopyranosyl-α-D-glucopyranoside] the “recrystallization of glass on storage” value ([3]; trehalose glass from evaporating water from 50% trehalose solution) was “gradually recrystallized over a period of several weeks”.

In the case of `CC(=O)OC[C@H]1O[C@H](OC(C)=O)[C@H](OC(C)=O)[C@@H](OC(C)=O)[C@@H]1OC(C)=O` [α-GPAC, α-glucose pentaacetate], the “Tg/° C.” value ([1]; single HDC glasses (Table 1)) is reported as 14 °C, the “loss of original weight” value ([4]; glass disc in 1 l of water replaced daily, after 7 days) is reported as 20% and the “rate of release of encapsulated Acid Blue dye” value ([4]; glass disc in water, FIG. 7) is reported as “quite constant”.

For `CC(=O)OC[C@H]1O[C@@H](OC(C)=O)[C@H](OC(C)=O)[C@@H](OC(C)=O)[C@@H]1OC(C)=O` [β-GPAC, β-glucose pentaacetate], the “Tg/° C.” value ([1]; single HDC glasses (Table 1)) was 17 °C, the “solubility of glass in water” value [4] was “poorly soluble in water” and the “loss of original weight” value ([4]; glass disc 20 mm diameter, 2.5 mm thick, flowing water, 10 days) was “about 33%”.

For Aluminum hexanoate, the “devitrification of film during dye release” value ([5]; 100-200 μm film, 1 wt % MB9, distilled water, 5 hr) was “No devitrification”.

For alkaline phosphatase, the “resistance of enzyme activity to acetone” value [6] was “more resistant to acetone”.

With calcium neodecanoate the “dye release relative to film dissolution” value ([5]; film with MB9 in distilled water, 24 hr, Ca2+ by atomic adsorption spectroscopy) was “followed the dissolution of the films”.

For horseradish peroxidase, the “resistance of enzyme activity to acetone” value [6] was “more resistant to acetone”.

With magnesium isostearate the “delay of dye release” value ([5]; glucose glass film with 1 wt % MB9 coated with 100 μm metal carboxylate film, distilled water) was 10 days.

For phycoerythrin, the “fluorescence after exposure to organic solvent” value ([7]; dimethylsulfoxide, powder solubilized) was “remained fluorescent”, the “functional activity after storage at 100° C.” value ([7]; dried in trehalose, one month) was “no detectable loss of functional activity” and the “time by which fluorescence was lost” value [7, 8] was ≤ 72 h. For the same compound, the time fluorescence remained [7, 8] was 24 to 48 h, the “fluorescence after exposure to organic solvent” value ([7]; freeze-dried with 20% trehalose, acetone, acetonitrile chloroform and methanol, 72 hrs) was “remained fluorescent” and the “biological activity as assessed by fluorescence” value ([7]; in spun sugar glass microneedles) was “retention of biological activity”. For the same compound, the “biological functionality by ability to fluoresce” value ([7]; trehalose glass powder co-melted into carboxylate glass at 95° C.) was “retained its biological functionality”, the “fluorescence in carboxylate glass formed by evaporation” value ([7]; trehalose glass powder in 1:1 sodium octanoate/zinc ethylhexanoate, chloroform) was “remained fluorescent” and the “fluorescence in perspex block” value ([7]; trehalose glass powder in perspex from chloroform) was “remained fluorescent”.

With zinc palmitate [ZnC16] the “wetting of coated powder in water” value ([5]; spray-dried trehalose/calcium lactate/MB9 particles coated with ZnC16) was “remained unwetted in water for at least three days”.
